Data on 2 molecules can be found in patent publication US20030144213A1, “Combination therapy of angiotensin converting enzyme inhibitor, side-effect reduced amount of aldosterone antagonist and diuretic for treatment of cardiovascular disease” (G.D. Searle & Co., priority 1996, published 2003).

In data set [1] the test system is patients with symptomatic heart failure. The experiment in a line: Spironolactone dose-ranging clinical trial (12 weeks, added to ACE inhibitor, loop diuretic, optional digitalis).
Data set [2] deals with hypertensive patients. Conditions: cited from earlier work.
Data set [3] deals with hypertensive-rat cohort. The following applies: sub-cutaneously; hypertensive rats; cited from earlier work.
Data set [4] deals with patients afflicted with congestive heart failure. The following applies: coadministered with an ACE inhibitor; cited from earlier work.
Data set [5] relates to myocardial fibrosis in animal models. The following applies: cited from earlier work.

For the molecule `C[C@H](CS)C(=O)N1CCC[C@H]1C(=O)O` [Captopril, captopril], in data set [1] (background ACE-I), the “Likelihood of hyperkalemia on captopril vs another ACE-I” value is listed as “about one-third as likely to develop hyperkalemia”. Moreover, the “Plasma aldosterone despite continued ACE inhibition” value in data set [2] is given as “gradual return of plasma aldosterone to baseline levels”.

`CC(=O)S[C@@H]1CC2=CC(=O)CC[C@]2(C)[C@H]2CC[C@@]3(C)[C@@H](CC[C@@]34CCC(=O)O4)[C@H]12` [Spironolactone, 17-hydroxy-7α-mercapto-3-oxo-17α-pregn-4-ene-21-carboxylic acid γ-lactone acetate]: the Fibrosis result in data set [3] was “prevent fibrosis in the hypertensive-rat cohort”. Further, the “Mean systolic and diastolic blood pressure (standing and supine)” value in data set [1] (25 mg, 50 mg and 75 mg groups, all visits) was “decreases in mean systolic and diastolic blood pressure”. Also, the “Change from baseline in body weight” value in data set [1] (75 mg dose group, Day 9 and Week 4) is listed as “more weight loss than other patients”. The “Change from baseline in PRA, dose-response” value in data set [1] (Day 9, Week 4 and Week 12 (P≦0.001)) was “higher doses of spironolactone associated with greater increases in PRA”. Besides, in data set [1] (Day 9 and Week 4 (p≦0.048), not at later visits), the “Change from baseline in serum magnesium” value is listed as “statistically significant dose-response”. Further, the “Change from baseline in supine pulse, dose response” value in data set [1] (Week 4 (p-value=0.045)) is listed as “greater decreases in pulse in the supine position at higher doses”. For the same molecule, in data set [1] (Week 12 (p=0.002; 0.005)), the “Hematocrit and hemoglobin vs placebo” value is on record as “lower levels for the active treatment groups”. Further, the “Urinary aldosterone excretion, dose response” value in data set [1] (Week 12 vs baseline (p=0.002)) was “Greater increases were seen at higher doses of spironolactone”. Also, the “N-Terminal Atrial Natriuretic Factor (ANF) change” value in data set [1] (all active treatments, Day 9, Week 4, Week 12) was “decreases from baseline at all treatment visits”. In addition, the “Deaths during the drug treatment period” value in data set [1] (all doses, 12 weeks) is “No deaths”. Moreover, the “Change from baseline in serum potassium, dose-response” value in data set [1] (all treatment period visits (p<0.001)) is on record as “Higher doses of spironolactone were associated with larger increases in potassium”. The “Hyperkalemia adverse event, dose-response of incidence” value in data set [1] (p=0.001) was “clear dose-response in term of incidence”. Also, the “Patients who died within 30 days after the study was completed” value in data set [1] (previously at the 50 mg dose) is recorded as “Three”. For the same molecule, the “NYHA Class improvement” value in data set [1] (vs placebo, not statistically significant) was “trend toward improvement”. Besides, the “Patients in whom highly effective” value in data set [4] was 13 of 16. Besides, in data set [5], the Myocardial fibrosis result is “prevents myocardial fibrosis in animal models”.
